Patent US20260144783A1, “COMPOSITION FOR PREVENTING OR TREATING PERIPHERAL NEUROPATHY, CONTAINING ISOQUINOLINE DERIVATIVE AS ACTIVE INGREDIENT” (ALTMEDICAL CO., LTD., priority 2022, published 2026)
Like-named read-outs stand apart in the source and are kept apart here.

Columns and labels:
BEAS-2B cell line [1] = assay: mitophagy activity, mt-Keima fluorescent protein (FACS, confocal microscope, mito-YFP); assay type: cell-based, human
Protocol: To analyze the mitophagy-promoting activity effect of the CD1-012 synthesized in the Example 1, the BEAS-2B cell line, which is a human normal lung cell line, was induced to express the mt-Keima fluorescent protein. Following this, the CD1-012 (15 μM) and the compound of Comparative Example 1, CCCP (10 μM), were treated for 24 hours. After the treatment, the mitophagy activity of each sample was measured, and the results were represented in FIGS. 1A to IC.
Specifically, FIG. 1A represents the analysis results using flow cytometry (FACS) (treatment of CD1-012 at 15 µM for 24 hours), FIG. 1B represents the analysis results using a confocal microscope (treatment of CD1-012 at 15 μM for 18 hours), and FIG. 1C represents the measurement results of the quantitative changes in the mitochondria using a fluorescent protein, mito-YFP, which includes a targeting sequence to transport protein to the mitochondria (treatment of CD1-012 at 20 μM for 24 hours).
It was confirmed whether CD1-012 synthesized in Example 1 promotes mitophagy activity in a concentration- and time-dependent manner. To this end, the CD1-012 was treated at various concentrations or at a fixed concentration (15 μM) for different treatment durations in the BEAS-2B cell line expressing mt-Keima, and mitophagy activity was measured using a flow cytometer.
(§1) It was confirmed whether CD1-012 synthesized in Example 1 specifically increases only mitophagy activity. To this end, the BEAS-2B cell line expressing mt-Keima was treated with CD1-012 (15 μM) or Comparative Example 1 (CCCP, 10 μM) for 18 hours, and mitophagy activity was analyzed using a confocal microscope. Additionally, to measure autophagy activity, the BEAS-2B cell line expressing Keima fluorescent protein was incubated in Hanks' balanced salt solution (HBSS) for 3 hours to induce a starvation condition (starv.), and the results were compared with samples treated with CD1-012 (15 μM) for 18 hours using a confocal microscope.
To this end, the human normal lung cell line BEAS-2B, expressing mt-Keima fluorescent protein, was treated with CD1-012, Comparative Example 2 (palmatine), or Comparative Example 3 (berberine) at various concentrations, and the mitophagy-inducing activity of each sample was compared.

[2] = system: mitochondrial membrane potential; assay: TMRM assay; assay type: cell-based; conditions: CD1-012 10 μM or 15 μM, CCCP 10 μM, 24 hours
Protocol: (§2) It was confirmed whether the isoquinoline derivative according to the present invention induces mitochondrial dysfunction, similar to CCCP. To this end, the CD1-012 (10 μM or 15 μM) and CCCP (10 μM) were treated for 24 hours, and the mitochondrial membrane potential and mitochondrial reactive oxygen species (ROS) levels in each sample were analyzed. Mitochondrial membrane potential was analyzed using the TMRM (tetramethylrhodamine methyl ester) assay, and mitochondrial ROS levels were analyzed using the MitoSOX assay.

[3] = system: mitochondrial reactive oxygen species (ROS); assay: MitoSOX assay; assay type: cell-based; conditions: CD1-012 10 μM or 15 μM, CCCP 10 μM, 24 hours
Protocol: as §2

[4] = system: BEAS-2B cell line, in which PINK1 was knocked down (shPINK1); assay: mitophagy activity in PINK1 knockdown cell line (FACS); assay type: cell-based, human; conditions: CCCP 10 μM or CD1-012 15 μM, 18 hours
Protocol: In this example, it was confirmed whether the mitophagy activation function of the isoquinoline derivative according to the present invention is dependent on the PINK1-Parkin pathway. To this end, after a BEAS-2B cell line, in which PINK1 was knocked down using short hairpin RNA (shRNA), was treated with CCCP (10 μM) of Comparative Example 1 or CD1-012 (15 μM) for 18 hours, the mitophagy activity of each sample was analyzed using flow cytometry (FACS).

[5] = system: chemotherapy-induced peripheral neuropathy mouse model; assay: nerve distribution in the footpad (IENFs), peripheral neuropathy mouse model; assay type: in vivo
Drosophila larvae = assay: larval size after treatment; assay type: in vivo
Protocol: In addition, to evaluate whether the compound according to the present invention affects the growth of Drosophila, the size of larvae was measured after treatment with paclitaxel and CD1-012.

[6] = system: chemotherapy-induced peripheral neuropathy mouse model; assay: vonfrey hair test, peripheral neuropathy mouse model; assay type: in vivo; conditions: mice
Protocol: To more clearly verify the therapeutic effect of the isoquinoline derivative of the present invention on peripheral neuropathy, particularly chemotherapy-induced peripheral neuropathy, experiments were conducted using a peripheral neuropathy mouse model. Specifically, peripheral neuropathy was induced in mice by administration of a chemotherapeutic agent (paclitaxel), and CD1-012 was co-administered at a dose of 10 mg/kg or 20 mg/kg. Sensitivity to pain was then analyzed using the vonfrey hair test.

[7] = system: Drosophila expressing shRap9 in C4da sensory neurons; assay: heat probe assay, Rap9 suppressed; assay type: in vivo; conditions: Rap9 expression suppressed; paclitaxel 20 μM and CD1-012 1 mM
Protocol: (§3) Subsequently, to understand the molecular mechanism underlying the therapeutic effect of CD1-012 on chemotherapy-induced peripheral neuropathy, the therapeutic effect of CD1-012 was examined after suppressing the expression of ULK1 or Rap9, which are essential genes in the recently identified alternative mitophagy pathway. To this end, a heat probe assay was performed using a 40° C. thermal probe after co-treating paclitaxel (20 μM) and CD1-012 (1 mM) in Drosophila expressing shULK1 or shRap9 in C4da sensory neurons, as well as in control Drosophila (wild-type). As a result, in the control group, the peripheral neuropathy symptoms (reduction in withdrawal latency) induced by paclitaxel were recovered by CD1-012 treatment.

[8] = system: third-instar larvae of Drosophila (w1118); assay type: in vivo; conditions: for withdrawal latency: heat probe 40° C.
Protocol: To this end, thermal sensitivity was measured in a Drosophila model of paclitaxel-induced peripheral neuropathy. […] As a result, after treatment with paclitaxel, hyperalgesia was observed, as indicated by a 35% reduction in withdrawal latency from 6.9 seconds to 4.5 seconds (FIG. 8A). Subsequently, to confirm the therapeutic effect of CD1-012 on peripheral neuropathy, Drosophila were treated with CD1-012 at a concentration of 1 mM along with paclitaxel (20 μM).
as §3

[9] = system: Drosophila expressing shULK1 in C4da sensory neurons; assay: heat probe assay, ULK1 suppressed; assay type: in vivo; conditions: ULK1 expression suppressed; paclitaxel 20 μM and CD1-012 1 mM
Protocol: as §3

[10] = system: Drosophila expressing shATG5 in C4da sensory neurons; assay: heat probe assay, ATG5 suppressed; assay type: in vivo; conditions: ATG5 expression suppressed; paclitaxel 20 μM and CD1-012 1 mM, 40° C. probe
Protocol: (§4) In this example, an experiment was conducted to verify the therapeutic mechanism of the compound according to the present invention on peripheral neuropathy, particularly chemotherapy-induced peripheral neuropathy. To this end, the therapeutic effect of CD1-012 on peripheral neuropathy was evaluated using animal models in which the expression of ATG5 or ATG7, essential genes in the canonical mitophagy pathway, the most representative mitophagy regulatory pathway, was suppressed. Specifically, paclitaxel (20 μM) and CD1-012 (1 mM) were co-administered to Drosophila expressing shATG7 or shATG5 in C4da sensory neurons, as well as to control flies (wild-type), and a heat probe assay was conducted using a 40° C. thermal probe.

HeLa-Parkin cell line = assay: mitophagy activity, flow cytometry (FACS); assay type: cell-based
Protocol: (§5) It was confirmed whether CD1-012 synthesized in Example 1 increases mitophagy activity in various cell lines. To this end, CD1-012 and Comparative Example 1 (CCCP) were treated in the SH-SY5Y cell line, a human neuroblastoma cell line expressing mt-Keima fluorescent protein, and in the HeLa-Parkin cell line, a HeLa cervical cancer cell line expressing Parkin (E3 ligase). Following this treatment, the mitophagy activity of each sample was analyzed using flow cytometry (FACS), and the results are shown in FIGS. 2A to 2B.

BEAS-2B cell line [11] = assay: autophagy activity, Keima fluorescent protein, confocal microscope; assay type: cell-based, human; conditions: 15 μM 18 h, BEAS-2B expressing Keima, FIG. 4B
Protocol: as §1

SH-SY5Y cell line = assay: mitophagy activity, mt-Keima, flow cytometry (FACS); assay type: cell-based, human; conditions: SH-SY5Y expressing mt-Keima
Protocol: as §5

[12] = system: C4da sensory neurons (ppk1a>CD4-tdTom Drosophila); assay: morphology of dendritic branches of C4da sensory neurons; assay type: in vivo
From the text: To analyze the morphological changes in the dendritic branches of C4da sensory neurons, transgenic Drosophila expressing the fluorescent protein CD4-tdTomato specifically in C4da neurons (ppk^1a>CD4-tdTom) was generated. After treatment of the transgenic flies with paclitaxel and CD1-012, morphological changes in the dendritic branches of C4da sensory neurons were examined. As a result, treatment with paclitaxel increased the total dendrite length and the number of dendritic branches by 22% and 33%, respectively, confirming that morphological changes in the sensory neurons were induced.

[13] = system: Drosophila expressing shATG7 in C4da sensory neurons; assay: heat probe assay, ATG7 suppressed; assay type: in vivo; conditions: ATG7 expression suppressed; paclitaxel 20 μM and CD1-012 1 mM, 40° C. probe
Protocol: as §4

[14] = 15 μM, BEAS-2B mt-Keima, FIG. 3B
[15] = CD1-012 co-administered with paclitaxel
[16] = paclitaxel treatment, C4da sensory neurons

## COc1cc2c(cc1OC)-c1cc3ccc(OC)c(OC)c3c[n+]1CC2 [palmatine, Palmatine, reference compound]
BEAS-2B cell line [1]; BEAS-2B mt-Keima, FIG. 5
  concentration at which mitophagy activity reached its maximum (comparable level): 400 µM

## N#CC(C#N)=NNc1cccc(Cl)c1 [CCCP, Carbonyl cyanide 3-chlorophenylhydrazone, reference compound]
[2]
  mitochondrial membrane potential: significantly reduced
[3]
  mitochondrial ROS levels: significantly increased
[4]
  mitophagy activation in PINK1 knockdown cell line (shPINK1) compared to control: significantly decreased

## Oc1cc2c(cc1O)-c1cc3ccc(O)c(O)c3c[n+]1CC2 [CD1-012, 2,3,9,10-tetrahydroxy-5,6-dihydroisoquinolino[3,2-a]isoquinolin-7-ium bromide]
[5]; mice treated with CD1-012 and paclitaxel, FIG. 12B
  number of peripheral nerves (intraepidermal nerve fibers: IENFs) in the footpad: recovery to normal levels
Drosophila larvae; in vivo
  reduction in larval size compared to the untreated control group: ~10%
BEAS-2B cell line [1]; 15 μM 24 h, CCCP 10 μM
  mitophagy activity compared with CCCP-treated sample (FIG. 1A, FACS): increased as significantly as
BEAS-2B cell line [1]; [14]
  treatment time after which mitophagy activity began to significantly increase: 3 h
  treatment time at which mitophagy activity reached its maximum level: 18 h
BEAS-2B cell line [1]; BEAS-2B mt-Keima, FIG. 5
  concentration at which mitophagy activity reached its maximum (comparable level): 10 µM
  mitophagy-inducing activity relative to berberine: approximately 8 times
  mitophagy-inducing activity relative to palmatine: approximately 40 times
BEAS-2B cell line [1]; BEAS-2B mt-Keima, flow cytometer, FIG. 3A
  concentration at which mitophagy activity began to significantly increase compared to untreated control: ≥ 7.5 µM
BEAS-2B cell line [1]; BEAS-2B mt-Keima, CD1-012 15 μM 24 h FACS, 15 μM 18 h confocal, 20 μM 24 h mito-YFP
  mitophagy activity compared to the untreated control group (Con): significant increase
BEAS-2B cell line [1]; up to the maximum treatment concentration of 17.5 μM, FIG. 3A
  mitophagy activity, concentration dependence: continued to increase in a concentration-dependent manner
[6]; CD1-012 10 mg/kg or 20 mg/kg co-administered with paclitaxel, FIG. 12A
  hyperalgesic symptoms (sensitivity to pain): significant improvement
[7]
  therapeutic effect on paclitaxel-induced peripheral neuropathy (withdrawal latency): completely abolished
[2]
  mitochondrial membrane potential: no decrease
[3]
  mitochondrial ROS levels: no increase
[8]; CD1-012 1 mM along with paclitaxel 20 μM
  withdrawal latency as percent of the wild-type level: 91%
[8]; CD1-012 1 mM along with paclitaxel 20 μM, paclitaxel alone 4.5 seconds
  withdrawal latency: 6.3 s
[8]; control Drosophila (wild-type), paclitaxel 20 μM and CD1-012 1 mM, 40° C. probe
  peripheral neuropathy symptoms (reduction in withdrawal latency) induced by paclitaxel: recovered
[4]
  mitophagy activation in PINK1 knockdown cell line (shPINK1) compared to control: did not show a significant difference
[9]
  therapeutic effect on paclitaxel-induced peripheral neuropathy (withdrawal latency): completely abolished
[10]
  therapeutic effect on chemotherapy-induced peripheral neuropathy (withdrawal latency): similarly observed
HeLa-Parkin cell line
  mitophagy activity compared to the control group (Con): significantly increased
BEAS-2B cell line [11]
  autophagy activity compared to the untreated control group: no significant difference
SH-SY5Y cell line
  mitophagy activity compared to the control group (Con): significantly increased
[12]; [15]
  paclitaxel-induced increase in dendrite length: significantly suppressed
  paclitaxel-induced increase in number of branches: significantly suppressed
[13]
  therapeutic effect on chemotherapy-induced peripheral neuropathy (withdrawal latency): similarly observed

## CC(=O)O[C@H]1C(=O)[C@@]2(C)[C@H]([C@H](OC(=O)c3ccccc3)[C@]3(O)C[C@H](OC(=O)[C@H](O)[C@@H](NC(=O)c4ccccc4)c4ccccc4)C(C)=C1C3(C)C)[C@]1(OC(C)=O)CO[C@@H]1C[C@@H]2O [paclitaxel, reference compound]
[5]; mice, paclitaxel alone
  number of peripheral nerves (intraepidermal nerve fibers: IENFs) in the footpad: reduced
Drosophila larvae; Drosophila larvae, FIG. 8B
  reduction in larval size compared to the untreated control group: ~28%
[6]; paclitaxel alone
  pain sensitivity: increased
[8]; paclitaxel 20 μM 48 hours alone, from 6.9 seconds to 4.5 seconds
  reduction in withdrawal latency: 35%
[8]; paclitaxel 20 μM 48 hours alone, untreated 6.9 seconds
  withdrawal latency: 4.5 s
[12]; [16]
  increase in number of dendritic branches: 33%
  increase in total dendrite length: 22%

## COc1ccc2cc3[n+](cc2c1OC)CCc1cc2c(cc1-3)OCO2 [berberine, Berberine, reference compound]
BEAS-2B cell line [1]; BEAS-2B mt-Keima, FIG. 5
  concentration at which mitophagy activity reached its maximum (comparable level): 80 µM
